From patent US20100222304A1, “Methods of Treating Neuropathic Pain by Modulation of Glycogenolysis or Glycolysis” (priority 2006, published 2010)
Like-named read-outs stand apart in the source and are kept apart here.

Tests used:
Tet/GSK-3-beta mice = conditions: cited from earlier work; for tau phosphorylation in the hippocampus: oral, 3 weeks, NP-01139 50 to 100 mg/kg/day, NP-12 100 to 200 mg/kg/day; for clinical signs: prolonged oral treatment
[1] = oral capsules 100, 200, 400 or 800 mg, 14 days; cited from earlier work
human hepatocytes [2] = conditions: human primary hepatocytes; read-out: EC50, inhibition of glucose production; cited from earlier work
[3] = cited from earlier work
goto-kakizaki (GK) rats = conditions: cited from earlier work
ZDF rats = conditions: cited from earlier work
patients = conditions: first 6 h after dosing on day 14, versus day before first dose; cited from earlier work
[4] = test system: Zucker diabetic fatty (ZDF) rats; conditions: cited from earlier work; for glucose tolerance: CS-917 300 mg/kg and/or glyburide 100 mg/kg orally, 90 min before 2 g/kg glucose, 3 h following; for insulin secretion: CS-917 300 mg/kg, glyburide 100 mg/kg orally
Female ZDF rats = conditions: 100 mg/kg/day, 14 days; cited from earlier work
cynomolgus monkeys = conditions: cited from earlier work
overnight fasted rats = conditions: 2.5 to 40 mg/kg 1 h before liquid meal 20 kcal/kg; effect at doses over 10 mg/kg; cited from earlier work
[5] = one oral suspension dose 2.5 to 1000 mg after overnight fast; cited from earlier work
gluconeogenesis = conditions: rat hepatocytes, isolated rat kidneys, whole animal studies; cited from earlier work
[6] = rats; cited from earlier work
db/db mice [7] = conditions: 60 mg/kg po qd, 9 days; cited from earlier work
Male Sprague-Dawley rats = experiment: Mechanical allodynia induced by spinal nerve ligation (SNL) in rats; type: in vivo, rat; conditions: 30 mg/kg PO, post-SNL day 19, p<0.01 vs. vehicle
Experimental: Male Sprague-Dawley rats (Hsd:Sprague-Dawley®SD®, Harlan, Indianapolis, Ind., U.S.A.) weighing 223±2 g on Day 14 were housed three per cage. Animals had free access to food and water and were maintained on a 12:12 h light/dark schedule for the entire duration of the study. The animal colony was maintained at 21° C. and 60% humidity. All experiments were conducted in accordance with the International Association for the Study of Pain guidelines and were approved by the University of Minnesota Animal Care and Use Committee.
The Spinal Nerve Ligation (SNL) model was used to induce chronic neuropathic pain. […]
Baseline, post-injury and post-treatment values for non-noxious mechanical sensitivity were evaluated using 8 Semmes-Weinstein filaments (Stoelting, Wood Dale, Ill., USA) with varying stiffness (0.4, 0.7, 1.2, 2.0, 3.6, 5.5, 8.5, and 15 g) according to the up-down method. […] The mean and standard error of the mean (SEM) were determined for each paw in each treatment group. […]
Statistical analyses were conducted using Prism™ 4.01 (GraphPad, San Diego, Calif., USA). Mechanical hypersensitivity of the injured paw was determined by comparing pre-SNL to post-SNL values at Day 14. Data were analyzed using the Wilcoxon test. […] Drug effect was analyzed by comparing post-vehicle and post-drug values using the Friedman test followed by a Dunn's post hoc test. […]

rat hepatocytes = conditions: read-out: EC50, reduction of glucagon-induced glycogenolysis; cited from earlier work
healthy conscious rats = conditions: glucagon 10 microg/kg iv; cited from earlier work
ob/ob mice = conditions: 30 mg/kg po, cited from earlier work
db/db mice [8] = conditions: cited from earlier work
human hepatocytes [9] = conditions: read-out: EC50, reduction of glucagon-induced glycogenolysis; cited from earlier work
[10] = single and multiple dose escalation; cited from earlier work
[11] = 50, 100, 200 or 400 mg qd, 14 days
[12] = chronic 21-day study, 10-week old ZDF rats

CC1CC(=O)C(CC2C=CC=CC2)C1=O (centres unmarked) [NP-12]
tau phosphorylation in the hippocampus (Tet/GSK-3-beta mice): dose-dependent significant decrease | clinical signs (Tet/GSK-3-beta mice): not showing any apparent clinical signs

CCOC(=O)[C@H](C)NP(=O)(N[C@@H](C)C(=O)OCC)c1ccc(-c2nc(N)sc2CC(C)C)o1 [CS-917]
tolerability [1]: well tolerated with no serious adverse events | EC50 (human hepatocytes [2]): 300 nM | lactic acid AUC compared with placebo ([3]; 400 mg dose): increased | absorption, metabolism, clearance [3, 11]: rapidly absorbed, extensively metabolized, rapidly cleared | tolerability [3, 11]: well tolerated with no serious adverse events | lactic acid profiles ([3]; other dose groups (50, 100, 200 mg)): indifferent from placebo | plasma glucagons (goto-kakizaki (GK) rats; 40 mg/kg): increased | plasma glucose levels (goto-kakizaki (GK) rats; 5 to 40 mg/kg, 3 h after administration): dose-dependently decreased | hepatic fructose 1,6-bisphosphate and fructose 6-phosphate (goto-kakizaki (GK) rats; 20 and 40 mg/kg, 4 h after administration): increased | glucose lowering (ZDF rats; [12]): effectively lowered glucose | minimum efficacious dose, glucose lowering (ZDF rats; [12]): 30 mg/kg | oral efficacy (ZDF rats; freely feeding and 6-h fasting ZDF rats, early and advanced disease states): good oral efficacy | blood glucose levels (patients): lower blood glucose levels | glucose tolerance [4]: improved glucose tolerance | insulin secretion [4]: No stimulation of insulin secretion | hyperglycemia (blood glucose) (Female ZDF rats): 166 ± 24 mg/dL | insulin levels, blood lactate, liver glycogen and liver triglycerides (Female ZDF rats): largely unaffected | plasma triglycerides (Female ZDF rats): tended to be lowered | polydipsia (Female ZDF rats): 15 ± 6.2 mL/day | plasma glucagons levels (cynomolgus monkeys; 60 mg/kg): increased | insulin levels (cynomolgus monkeys; 20 to 60 mg/kg, 3 h after administration): dose-dependently decreased | AUC values of plasma glucose levels (overnight fasted rats): significantly dose dependently decreased | tolerability [5]: well tolerated with nausea seen at 400 mg and vomiting seen at 800 and 1000 mg | gluconeogenesis (gluconeogenesis): inhibit gluconeogenesis

O=C(N[C@@H](Cc1ccc(F)cc1)C(=O)N1CCC(O)CC1)c1cc2cc(Cl)ncc2[nH]1 [PSN-357]
t1/2 [6]: 4 h | hyperglycemia (db/db mice [7]): prevented hyperglycemia | increase in liver glycogen (db/db mice [7]): 57% | muscle glycogen, plasma insulin or alanine aminotransferase (db/db mice [7]): no changes | mechanical allodynia (von Frey, up-down method) (Male Sprague-Dawley rats): reduced mechanical allodynia | EC50 (rat hepatocytes): 1900 nM | minimum effective dose, inhibition of glucagon-stimulated elevation of blood glucose (healthy conscious rats): 3 mg/kg | blood glucose levels (ob/ob mice; 90 to 210 minutes post administration): reduced blood glucose levels | increase in liver glycogen (ob/ob mice; after 5 h): 66% | heart and skeletal muscle glycogen (db/db mice [8]; after 5 h): remained unaffected | liver glycogen (db/db mice [8]; after 5 h): increase in liver glycogen | reduction of blood glucose (db/db mice [8]; maintained after 5 h): 35% | EC50 (human hepatocytes [9]): 1100 nM | safety and tolerability [10]: safe and well tolerated

Cn1sc(=O)n(Cc2ccccc2)c1=O [NP-01139]
tau phosphorylation in the hippocampus (Tet/GSK-3-beta mice): dose-dependent significant decrease | clinical signs (Tet/GSK-3-beta mice): not showing any apparent clinical signs

COc1ccc(Cl)cc1C(=O)NCCc1ccc(S(=O)(=O)NC(=O)NC2CCCCC2)cc1 [glyburide]
glucose tolerance [4]: improved glucose tolerance | insulin secretion [4]: positive insulin secretory response
